# Measured values reported in BindingDB's records for doi:10.1021/jm300576q (Georgetown University Medical Center, 2012).
# Test: Inhibition of VEGFR2-mediated angiogenesis in human HUVEC cells after 24 hrs by inverted photomicroscopic analysis
compound,measurement,value
COC(=O)Nc1nc2ccc(C(=O)c3ccccc3)cc2[nH]1 [methyl (5-benzoyl-1H-benzimidazol-2-yl)carbamate],IC50,8.8 µM
